Laboratory results published in PMC7285181 (Pharmaceutics, 2020).
Where a name gives a salt, the structure may show the parent alone. Marks after values point to notes of the source that are not given here.

Tested on: compound 48/80-induced systemic anaphylaxis-like reactions in mice
Experiment: Compound 48/80-induced systemic anaphylaxis-like reactions in mice (mortality)
Assay type: in vivo
Details: n = 8, oral 1 h before i.p. compound 48/80 (8 mg/kg), mortality within 1 h
Description: Five groups each of 8 male albino mice were used in this experiment. Mice were housed 4 per cage and were maintained at room temperature (25 ± 0.5 °C). All experiments were performed in compliance with the guidelines approved by the ethics committee of Faculty of Pharmacy, The British University in Egypt (approval number Ex-1904). The mice in the first group were administered phosphate buffer saline orally (negative control group), while the second group were administered phosphate buffer saline 1 hour prior to an intraperitoneal injection of 8 mg/kg of the mast cell degranulator compound 48/80 which induces systemic anaphylaxis-like reactions in mice (positive control group). […] The mortality was monitored for 1 h after induction of anaphylactic shock. After the mortality test, blood was obtained from the heart of each mouse by cardiac puncture.

In the case of `CC(C)(C(=O)O)c1ccc(C(O)CCCN2CCC(C(O)(c3ccccc3)c3ccccc3)CC2)cc1` (stereo not shown) [FEX powder, Fexofenadine HCl], the Mortality is reported as 62.5% *.
